# Patent US9708359B2, “Pyrrolopyrimidine nucleosides and analogs thereof” (Chimerix, Inc., priority 2015, dated 2017)
# “And” between values parts separate entries of the source, which are not always exact repeats. Equal values may be shown once.
# Test system: mouse norovirus
# Assay: Mouse Norovirus (MNV) assay in RAW cells
# Conditions: murine norovirus, Table 7
row,SMILES,EC50
1,Cc1nc(N)c2c(C(N)=O)cn([C@@H]3O[C@H](COP(=O)(N[C@@H](C)C(=O)OCc4ccccc4)Oc4ccccc4)[C@@H](O)[C@H]3O)c2n1 (stereo partly shown) [Compound 107],18.1 µM
2,COC(=O)[C@H](C)NP(=O)(OC[C@H]1O[C@@H](n2cc(C(N)=O)c3c(N)nc(C)nc32)[C@H](O)[C@@H]1O)Oc1ccccc1 (stereo partly shown) [Compound 111],21 µM
3,Cc1nc(N)c2c(C(N)=O)cn([C@@H]3O[C@H](COP(=O)(N[C@@H](C)C(=O)OCc4ccccc4)N[C@H](C)C(=O)OCc4ccccc4)[C@@H](O)[C@H]3O)c2n1 [Compound 126],33.6 µM and 38.9 µM
4,Cc1nc(N)c2c(C(N)=O)cn([C@@H]3O[C@H](COP(=O)(N[C@@H](C)C(=O)OC(C)C)Oc4ccccc4)[C@@H](OC(=O)C(C)C)[C@H]3OC(=O)C(C)C)c2n1 (stereo partly shown) [Compound 133],25.7 µM
5,Cc1nc(N)c2c(C(N)=O)cn([C@@H]3O[C@H](COP(=O)(N[C@@H](C)C(=O)OC(C)C)OCc4ccccc4C)[C@@H](O)[C@H]3O)c2n1 (stereo partly shown) [Compound 137],20 µM
6,CCCCCCCCCCCCCCCCOCCCOC(=O)[C@H](C)NP(=O)(OC[C@H]1O[C@@H](n2cc(C(N)=O)c3c(N)nc(C)nc32)[C@H](O)[C@@H]1O)Oc1ccccc1 (stereo partly shown) [Compound 139],2.3 µM
7,Cc1nc(N)c2c(C(N)=O)cn([C@@H]3O[C@H](COP(=O)(O)N[C@@H](C)C(=O)OC(C)C)[C@@H](O)[C@H]3O)c2n1 [Compound 141],3.2 µM
8,CCCCCCCCCCCCCCCCOCCCOC(=O)[C@H](C)NP(=O)(O)OC[C@H]1O[C@@H](n2cc(C(N)=O)c3c(N)nc(C)nc32)[C@H](O)[C@@H]1O [Compound 143],26.3 µM
9,CCCCCCCCC(=O)Oc1ccc(COP(=O)(OCc2ccc(OC(=O)CCCCCCCC)cc2)OP(=O)(O)OC[C@H]2O[C@@H](n3cc(C(N)=O)c4c(N)nc(C)nc43)[C@H](O)[C@@H]2O)cc1 [Compound 145],7.4 µM

# Same assay, conditions: murine norovirus, Table 8; N/A = assayed but no EC50 value could be measured
row,EC50 [µM],SMILES
1,> 100,Cc1nc(N)c2c(C(=N)NO)cn([C@@H]3O[C@H](CO)[C@@H](O)[C@H]3O)c2n1 [Compound 85]
2,> 100,COC(=O)C(OC[C@H]1O[C@@H](n2cc(C#N)c3c(N)nc(C)nc32)[C@H](O)[C@@H]1O)P(=O)(OC)OC (stereo partly shown) [Compound 86]
3,> 100,Cc1nc(N)c2c(C(=N)N)cn([C@@H]3O[C@H](CO)[C@@H](O)[C@H]3O)c2n1 [Compound 91]
4,> 100,Cc1nc(N)c2c(C(N)=O)cn([C@@H]3O[C@H](COC(=O)[C@@H](N)C(C)C)[C@@H](OC(=O)C(N)C(C)C)[C@@]3(C)O)c2n1 (stereo partly shown) [Compound 93]
5,> 100,Cc1nc(Cl)c2ccn(C[C@H](O)CO)c2n1 [Compound 98]
6,> 100,COC(=N)c1cn([C@@H]2O[C@@](CO)(N=[N+]=[N-])[C@@H](O)[C@H]2O)c2nc(C)nc(N)c12 [Compound 100]
7,> 100,COC(=N)c1cn([C@@H]2O[C@H](COS(=O)(=O)CCCCl)[C@H]3OC(C)(C)O[C@H]32)c2nc(C)nc(N)c12 [Compound 103]
8,> 100,COC(=N)c1cn([C@@H]2O[C@H](CN=[N+]=[N-])[C@@H](O)[C@H]2O)c2nc(C)nc(N)c12 [Compound 104]
9,> 100,Cc1nc(N)c2c(C(N)=O)cn([C@@H]3O[C@@](CO)(N=[N+]=[N-])[C@@H](O)[C@H]3O)c2n1 [Compound 105]
10,> 100,Cc1nc(N)c2c(C#N)cn([C@@H]3O[C@@](CO)(N=[N+]=[N-])[C@@H](O)[C@H]3O)c2n1 [Compound 106]
11,> 100,Cc1nc(N)c2c(C(N)=O)cn([C@@H]3O[C@H](CN)[C@@H](O)[C@H]3O)c2n1 [Compound 108]
12,> 100,Cc1nc(N)c2c(C(N)=O)cn([C@@H]3O[C@H](CO)[C@@H](N=[N+]=[N-])[C@H]3O)c2n1 [Compound 112]
13,> 100,Cc1nc(N)c2c(C(N)=O)cn([C@@H]3O[C@H](CO)[C@@H](N)[C@H]3O)c2n1 [Compound 113]
14,> 100,Cc1nc(N)c2c(C#N)cn([C@H]3C=C[C@@H](O)O3)c2n1 [Compound 114]
15,> 100,CCOP(=O)(CO[C@@H]1C=C[C@H](n2cc(C#N)c3c(Cl)nc(C)nc32)O1)OCC [Compound 116]
16,> 100,Cc1nc(Cl)c2c(C#N)cn([C@@H]3O[C@H](O)[C@@H](O)[C@H]3O)c2n1 [Compound 117]
17,> 100,CCOP(=O)(CC[C@H]1O[C@@H](n2cc(C(N)=O)c3c(N)nc(C)nc32)[C@H](O)[C@@H]1O)OCC [Compound 119]
18,> 100,Cc1nc(Cl)c2ccn([C@H]3CC=CO3)c2n1 [Compound 120]
19,> 100,CCOP(=O)(CCO[C@H]1O[C@@H](n2cc(C#N)c3c(Cl)nc(C)nc32)[C@H](O)[C@@H]1O)OCC [Compound 123]
20,> 100,Cc1nc(N)c2c(C(N)=O)cn([C@@H]3O[C@H](OCCP(=O)(O)O)[C@@H](O)[C@H]3O)c2n1 [Compound 125]
21,> 100,CC(=O)Nc1nc(C)nc2c1c(C(N)=O)cn2[C@@H]1O[C@H](COC(C)=O)[C@@H](OC(C)=O)[C@H]1OC(C)=O [Compound 128]
22,> 100,CCCC(CCC)C(=O)Nc1nc(C)nc2c1c(C(N)=O)cn2[C@@H]1O[C@H](CO)[C@@H](O)[C@H]1O [Compound 131]
23,> 100,Cc1nc(N)c2c(C(N)=O)cn([C@@H]3O[C@H](COP(=O)(N[C@@H](C)C(=O)OC(C)C)Oc4ccccc4)[C@@H](O)[C@H]3O)c2n1 (stereo partly shown) [Compound 132]
24,> 100,CCCCCCCCCCCCCCCCOCCCOP(=O)(N[C@@H](C)C(=O)OC(C)C)OC[C@H]1O[C@@H](n2cc(C(N)=O)c3c(N)nc(C)nc32)[C@H](O)[C@@H]1O (stereo partly shown) [Compound 140]
25,> 100,CCCCCCCCCCCCCCCOCCCOC(=O)C(C)NP(=O)(OCc1ccccc1C)OC[C@H]1O[C@@H](n2cc(C(N)=O)c3c(N)nc(C)nc32)[C@H](O)[C@@H]1O (stereo partly shown) [Compound 142]

row,SMILES,EC50 [µM]
1,Cc1nc(N)c2c(C(N)=O)cn([C@@H]3O[C@H](CO)[C@@H](O)[C@@]3(C)O)c2n1 [Compound 87],> 100
2,N#Cc1nc(N)c2c(C(N)=O)cn([C@@H]3O[C@H](CO)[C@@H](O)[C@H]3O)c2n1 [Compound 89],> 100
3,CC#Cc1nc(N)c2c(C(N)=O)cn([C@@H]3O[C@H](CO)[C@@H](O)[C@H]3O)c2n1 [Compound 90],> 100
4,Cc1nc(N)c2c(C(N)=O)cn([C@H]3C[C@H](O)[C@@H](CO)O3)c2n1 [Compound 92],> 100
5,Cc1nc(NO)c2c(C(N)=O)cn([C@@H]3O[C@H](CO)[C@@H](O)[C@H]3O)c2n1 [Compound 94],> 100
6,Cc1nc(NN)c2c(C(N)=O)cn([C@@H]3O[C@H](CO)[C@@H](O)[C@H]3O)c2n1 [Compound 95],> 100
7,Cc1nc(N)c2c(C(N)=O)cn([C@@H]3O[C@H](C)[C@@H](O)[C@H]3O)c2n1 [Compound 97],> 100
8,NC(=O)c1cn([C@@H]2O[C@H](CO)[C@@H](O)[C@H]2O)c2nc(CO)nc(N)c12 [Compound 99],> 100
9,Cc1nc(N)c2c(C(N)=O)cn([C@@H]3O[C@H](CO)[C@@H](F)[C@H]3O)c2n1 [Compound 101],> 100
10,Cc1nc(N)c2c(C(N)=O)cn([C@@H]3O[C@H](C(C)O)[C@@H](O)[C@H]3O)c2n1 (stereo partly shown) [Compound 102],> 100
11,Cc1nc(N)c2c(C(N)=O)cn([C@@H]3O[C@@H](CO)[C@@H](O)[C@H]3O)c2n1 [Compound 109],> 100
12,Cc1nc(N)c2c(C(N)=O)cn([C@H]3CCCO3)c2n1 [Compound 110],> 100
13,Cc1nc(N)c2c(C(N)=O)cn([C@@H]3O[C@H](O)[C@@H](O)[C@H]3O)c2n1 [Compound 118],> 100
14,Cc1nc(N)c2c(C(N)=O)cn([C@H]3C=C[C@@H](O)O3)c2n1 [Compound 124],> 100
15,Cc1nc(/N=C/N(C)C)c2c(C(N)=O)cn([C@@H]3O[C@H](CO)[C@@H](O)[C@H]3O)c2n1 [Compound 127],5.5
16,CC(=O)OC[C@H]1O[C@@H](n2cc(C(N)=O)c3c(N)nc(C)nc32)[C@H](OC(C)=O)[C@@H]1OC(C)=O [Compound 129],88.7
17,CCCCCCCCCCCCCCCCOCCCC(=O)Nc1nc(C)nc2c1c(C(N)=O)cn2[C@@H]1O[C@H](CO)[C@@H](O)[C@H]1O [Compound 130],42.7
18,Cc1nc(N)c2c(C(N)=O)cn([C@@H]3O[C@H](COP(=O)(N[C@@H](C)C(=O)OC(C)C)Oc4ccccc4)[C@H]4OC(=O)O[C@H]43)c2n1 (stereo partly shown) [Compound 134],68.4
19,Cc1nc(N)c2c(C(N)=O)cn([C@@H]3O[C@H](COP(=O)(NCc4ccccc4)NCc4ccccc4)[C@@H](O)[C@H]3O)c2n1 [Compound 136],64.5
20,C=Cc1c(C(N)=O)c2c(N)nc(C)nc2n1[C@@H]1O[C@H](CO)[C@@H](O)[C@H]1O [Compound 144],> 100

# Test system: RAW cells
# Assay: Conversion of Compound 1 to Triphosphate in RAW Cells
# Conditions: RAW cells incubated with 0.5 μM Compound 1 for 48 hours
SMILES,Concentration (ng/1 × 10^6 cells),Concentration (pmol/1 × 10^6 cells)
Cc1nc(N)c2c(C(N)=O)cn([C@@H]3O[C@H](COP(=O)(O)OP(=O)(O)OP(=O)(O)O)[C@@H](O)[C@H]3O)c2n1 [Compound 1-TP],3.74,6.37

# Same assay, conditions: RAW cells incubated with 1 μM Compound 1 for 48 hours
SMILES,Concentration (ng/1 × 10^6 cells),Concentration (pmol/1 × 10^6 cells)
Cc1nc(N)c2c(C(N)=O)cn([C@@H]3O[C@H](COP(=O)(O)OP(=O)(O)OP(=O)(O)O)[C@@H](O)[C@H]3O)c2n1 [Compound 1-TP],5.13,8.74

# Same assay, conditions: RAW cells incubated with 5 μM Compound 1 for 48 hours
SMILES,Concentration (ng/1 × 10^6 cells),Concentration (pmol/1 × 10^6 cells)
Cc1nc(N)c2c(C(N)=O)cn([C@@H]3O[C@H](COP(=O)(O)OP(=O)(O)OP(=O)(O)O)[C@@H](O)[C@H]3O)c2n1 [Compound 1-TP],26.77,45.61

# Same assay, conditions: RAW cells incubated with 10 μM Compound 1 for 48 hours
SMILES,Concentration (ng/1 × 10^6 cells),Concentration (pmol/1 × 10^6 cells)
Cc1nc(N)c2c(C(N)=O)cn([C@@H]3O[C@H](COP(=O)(O)OP(=O)(O)OP(=O)(O)O)[C@@H](O)[C@H]3O)c2n1 [Compound 1-TP],41.78,71.18

# Same assay, conditions: ratio by ng; 0.5 μM Compound 1, 48 hours
row,SMILES,(Compound 1-TP)/(Compound 1) (ng)
1,Cc1nc(N)c2c(C(N)=O)cn([C@@H]3O[C@H](COP(=O)(O)OP(=O)(O)OP(=O)(O)O)[C@@H](O)[C@H]3O)c2n1 [Compound 1-TP],21.8

# Same assay, conditions: ratio by ng; 1 μM Compound 1, 48 hours
row,SMILES,(Compound 1-TP)/(Compound 1) (ng)
1,Cc1nc(N)c2c(C(N)=O)cn([C@@H]3O[C@H](COP(=O)(O)OP(=O)(O)OP(=O)(O)O)[C@@H](O)[C@H]3O)c2n1 [Compound 1-TP],39.4

# Same assay, conditions: ratio by ng; 5 μM Compound 1, 48 hours
row,SMILES,(Compound 1-TP)/(Compound 1) (ng)
1,Cc1nc(N)c2c(C(N)=O)cn([C@@H]3O[C@H](COP(=O)(O)OP(=O)(O)OP(=O)(O)O)[C@@H](O)[C@H]3O)c2n1 [Compound 1-TP],41.3

# Same assay, conditions: ratio by ng; 10 μM Compound 1, 48 hours
row,SMILES,(Compound 1-TP)/(Compound 1) (ng)
1,Cc1nc(N)c2c(C(N)=O)cn([C@@H]3O[C@H](COP(=O)(O)OP(=O)(O)OP(=O)(O)O)[C@@H](O)[C@H]3O)c2n1 [Compound 1-TP],41.1

# Same assay, conditions: ratio by pmol; 0.5 μM Compound 1, 48 hours
row,SMILES,(Compound 1-TP)/(Compound 1) (pmol)
1,Cc1nc(N)c2c(C(N)=O)cn([C@@H]3O[C@H](COP(=O)(O)OP(=O)(O)OP(=O)(O)O)[C@@H](O)[C@H]3O)c2n1 [Compound 1-TP],12.0

# Same assay, conditions: ratio by pmol; 1 μM Compound 1, 48 hours
row,SMILES,(Compound 1-TP)/(Compound 1) (pmol)
1,Cc1nc(N)c2c(C(N)=O)cn([C@@H]3O[C@H](COP(=O)(O)OP(=O)(O)OP(=O)(O)O)[C@@H](O)[C@H]3O)c2n1 [Compound 1-TP],21.7

# Same assay, conditions: ratio by pmol; 5 μM Compound 1, 48 hours
row,SMILES,(Compound 1-TP)/(Compound 1) (pmol)
1,Cc1nc(N)c2c(C(N)=O)cn([C@@H]3O[C@H](COP(=O)(O)OP(=O)(O)OP(=O)(O)O)[C@@H](O)[C@H]3O)c2n1 [Compound 1-TP],22.7

# Same assay, conditions: ratio by pmol; 10 μM Compound 1, 48 hours
row,SMILES,(Compound 1-TP)/(Compound 1) (pmol)
1,Cc1nc(N)c2c(C(N)=O)cn([C@@H]3O[C@H](COP(=O)(O)OP(=O)(O)OP(=O)(O)O)[C@@H](O)[C@H]3O)c2n1 [Compound 1-TP],22.6
